This note sets out measurements from ChEMBL document CHEMBL6121013, “Novel antimalarial 3-substituted quinolones isosteres with improved pharmacokinetic properties” (Eur J Med Chem, 2025).

Broadly, the IC50 is the concentration that inhibits the measured activity by half. Usually fraction unbound stands for the share of the substance not bound to proteins or other matrix. Usually solubility stands for how much of the substance goes into solution per volume. Usually logD stands for lipophilicity at a set pH, counting ionised and neutral species. A word on the AUC: it is the area under the concentration-time curve, a measure of exposure. For orientation: bioavailability means dose-corrected exposure relative to a reference, in per cent. A low value points to poor availability. A word on the half-life: it is the time needed for the level to fall by half in the phase considered. A word on the Cmax: it is the peak of the concentration-time curve. What is called clearance is a measure of how efficiently the substance is removed, as volume per time. A lower clearance goes with inefficient removal.

Values after ≈ are worked out from the molar mass of the structure shown.

Series [1] relates to Plasmodium falciparum. Description: Antimalarial activity against chloroquine-resistant Plasmodium falciparum W2 assessed as reduction in malarial growth incubated for 72 hrs by Spectrophotometric analysis. The class given is functional, organism-based. As to conditions: W2, 72 h.
Series [2] in a line: Plasma protein binding in human assessed as free fraction incubated for 6 hrs by LC-MS/MS analysis. In kind it is ADME, cell-free.
Series [3] can be described thus: Metabolic stability in rat hepatocytes assessed as intrinsic clearance measured at 10^6 cells incubated for 5 to 120 mins by LC-MS/MS analysis. In kind it is ADME, cell-based, Hepatocyte. As to conditions: time 5-120 min, read-out: CLH.
Series [4] in a line: Solubility of the compound at pH 7.4. In kind it is physicochemical. Conditions: buffer.
Series [5] can be described thus: Metabolic stability in human liver microsomes assessed as intrinsic clearance incubated for 0.5 to 30 mins by LC-MS/MS analysis. In kind it is ADME, Microsome. As to conditions: time 0.5-30 min, read-out: CLH. A general note: Liver microsomes are vesicles of endoplasmic reticulum, rich in cytochrome P450 enzymes.
A short description of series [6]: Lipophilicity, logD of the compound at pH 7.4 by shake flask method. The class given is physicochemical. As to conditions: buffer.
Series [7] is described as follows: AUC in male CD1 mouse at 50 mg/kg, po by LC-MS analysis. The class given is ADME, organism-based. As to conditions: in vivo.
The nature of series [8]: Oral bioavailability in male CD1 mouse at 50 mg/kg by LC-MS analysis. In kind it is ADME, organism-based. As to conditions: in vivo.
Series [9] can be described thus: Half life in male CD1 mouse at 2 mg/kg, iv by LC-MS analysis. In kind it is ADME, organism-based. As to conditions: in vivo.
Series [10] is described as follows: Cmax in male CD1 mouse at 50 mg/kg, po by LC-MS analysis. Conditions: in vivo. The class given is ADME, organism-based.
A short description of series [11]: Clearance in male CD1 mouse at 2 mg/kg, iv by LC-MS analysis. In kind it is ADME, organism-based. Conditions: in vivo.
The nature of series [12]: Clearance in mouse administered intravenously. In kind it is ADME. Conditions: in vivo, route iv.

On to `Cc1[nH]c2ccccc2c(=O)c1-c1ccc(Oc2ccc(OC(F)(F)F)cc2)cc1`, for which the IC50 in series [1] was found to be 0.092 µM. Moreover, the fraction unbound at 6 h in series [2] was found to be 0.0009. Moreover, the hepatocyte CLint in series [3] stood at 6.17 µL/min/1e6 cells. The molecule also showed a solubility in series [4] of 3 µM (≈ 1.23 µg/mL). Moreover, the microsomal CLint in series [5] was below 3 µL/min/mg. For the same molecule, in [6], the logD came out at 4.9.
As to `Cc1[nH]c2c(c(=O)c1-c1ccc(Cl)cc1)CC(F)(F)CC2`, in series [7], the AUC worked out at 405 µg·h/mL. Besides, the IC50 in series [1] came to 0.235 µM. Further, in series [2], the fraction unbound at 6 h was 0.12. The molecule also yielded a bioavailability in series [8] of 23.4%. The molecule also showed a half-life in series [9] of 6.39 h. Moreover, the hepatocyte CLint in [3] is below 1 µL/min/1e6 cells. In series [4], this molecule came in with a solubility of 20 µM (≈ 6.19 µg/mL). The microsomal CLint in series [5] is below 3 µL/min/mg. Besides, the logD in series [6] was found to be 2.7. The Cmax in [10] was found to be 28900 ng/mL. This molecule also displayed a clearance in [11] of 0.47 mL/min/kg.
Take `Cc1[nH]c2c(c(=O)c1-c1ccc(OC(F)(F)F)cc1)CCCC2`: in [1], the IC50 came to 0.354 µM. Also, in series [2], the fraction unbound at 6 h stood at 0.15. For the same molecule, the hepatocyte CLint in [3] was 1.14 µL/min/1e6 cells. This molecule also returned a solubility in [4] of 14 µM (≈ 4.53 µg/mL). In [5], the microsomal CLint is 25.6 µL/min/mg. Further, in [6], the logD is 3.3.
Turning to `Cc1[nH]c2c(c(=O)c1-c1ccc(Oc3ccc(OC(F)(F)F)cc3)cc1)CCOC2`, in series [1], the IC50 is 0.446 µM.
As for `Cc1[nH]c2c(c(=O)c1-c1ccc(-c3ccc(OC(F)(F)F)cc3)nc1)CCCC2`, the IC50 in [1] was 1.15 µM.
In the case of `Cc1[nH]c2c(c(=O)c1-c1ccc(Oc3ccc(OC(F)(F)F)cc3)cc1)CCCC2`, in [1], the IC50 was 0.157 µM. Further, the fraction unbound at 6 h in series [2] came out at 0.0013. Moreover, the hepatocyte CLint in series [3] is 9.05 µL/min/1e6 cells. In series [4], this molecule registered a solubility of 0.2 µM (≈ 0.0831 µg/mL). The microsomal CLint in series [5] was below 3 µL/min/mg. This molecule also yielded a logD in series [6] of 4.5.
For `COc1cc2[nH]c(C)c(-c3ccc(Oc4ccc(OC(F)(F)F)cc4)cc3)c(=O)c2cc1Cl`, the clearance in series [12] is 0.7 mL/min/kg.
In the case of `Cc1[nH]c2c(c(=O)c1-c1ccc(F)cc1)CCCC2`, in series [1], the IC50 turned out to be 4.8 µM.
In the case of `Cc1[nH]c2c(c(=O)c1-c1ccc(F)cc1)COCC2`, in series [1], the IC50 was above 10 µM.
Same read-out and setting: with `Cc1[nH]c2c(c(=O)c1-c1ccc(Cl)cc1)CCCC2` the figure was 0.956 µM.
Same read-out and setting: with `Cc1[nH]c2c(c(=O)c1-c1ccc(-c3ccc(OC(F)(F)F)cc3)nc1)COCC2` the figure was above 10 µM.
On to `Cc1[nH]c2c(c(=O)c1-c1ccc(Oc3ccc(OC(F)(F)F)cc3)cc1)COCC2`, for which the IC50 in [1] was 0.528 µM. Moreover, in series [2], the fraction unbound at 6 h was found to be 0.0065. The hepatocyte CLint in [3] is 2.63 µL/min/1e6 cells. In series [4], this molecule gave a solubility of 140 µM (≈ 58.4 µg/mL). Further, the microsomal CLint in [5] is below 3 µL/min/mg. Besides, the logD in series [6] was 3.8.
In the case of `Cc1[nH]c2c(c(=O)c1-c1ccc(Cl)cc1)COCC2`, the IC50 in series [1] is above 10 µM.
Same read-out and setting: with `Cc1[nH]c2c(c(=O)c1-c1ccc(Cl)cc1)CCCCC2` the figure was 3.8 µM.
Turning to `Cc1[nH]c2c(c(=O)c1-c1ccc(F)cc1)CCOC2`, the IC50 in [1] came out at 8.41 µM.
The same measure, in the same setting: the result for `Cc1[nH]c2c(c(=O)c1-c1ccc(F)cc1)CCCCC2` reads 4.97 µM.
As to `Cc1[nH]c2c(c(=O)c1-c1ccc(Oc3ccc(OC(F)(F)F)cc3)cc1)CC(F)(F)CC2`, the IC50 in series [1] was found to be 0.285 µM. The fraction unbound at 6 h in [2] amounted to 0.0029. In addition, the hepatocyte CLint in [3] was below 1 µL/min/1e6 cells. Also, in [4], the solubility amounted to 2 µM (≈ 0.903 µg/mL). The microsomal CLint in series [5] was below 3 µL/min/mg. The same molecule came in with a logD in series [6] of 3.9.
As for `Cc1[nH]c2c(c(=O)c1-c1ccc(Oc3ccc(OC(F)(F)F)cc3)cc1)CCCCC2`, the IC50 in series [1] was 1.52 µM.
Turning to `Cc1[nH]c2c(c(=O)c1-c1ccc(F)cc1)CC(F)(F)CC2`, the half-inhibitory concentration (IC50) in [1] came to 0.597 µM. Moreover, the fraction unbound at 6 h in [2] was 0.3. In addition, the hepatocyte CLint in series [3] is below 1 µL/min/1e6 cells. Also, the solubility in [4] was found to be 68 µM (≈ 19.9 µg/mL). Also, the microsomal CLint in [5] is below 3 µL/min/mg. In addition, the logD in [6] worked out at 1.7.
